Experimental findings from patent US9982017B2, “Synthetic apelin mimetics for the treatment of heart failure” (priority 2012, dated 2018) are described below.

One series deals with T1, hAPJ (Homo sapiens, UniProt P35414).
T1 sequence (P35414 1-380): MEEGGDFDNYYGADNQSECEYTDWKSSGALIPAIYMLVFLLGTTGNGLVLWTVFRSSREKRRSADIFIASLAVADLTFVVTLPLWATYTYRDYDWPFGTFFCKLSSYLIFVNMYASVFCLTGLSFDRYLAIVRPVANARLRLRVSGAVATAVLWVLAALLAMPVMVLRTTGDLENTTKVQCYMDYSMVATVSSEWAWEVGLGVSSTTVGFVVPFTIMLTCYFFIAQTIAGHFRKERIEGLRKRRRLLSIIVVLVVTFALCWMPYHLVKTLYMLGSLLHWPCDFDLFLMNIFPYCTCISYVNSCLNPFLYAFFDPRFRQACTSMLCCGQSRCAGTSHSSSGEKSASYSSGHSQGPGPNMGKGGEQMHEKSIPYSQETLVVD
Briefly: hAPJ Calcium Flux Assay. It counts as cell-based.

Series [1] is described as follows: Surrogate Activity-Based Plasma Stability Assay (calcium flux EC50 after incubation with 5% rat plasma). Particulars: not told.
Description: The slope of this line, k, was determined by linear regression (Microsoft Excel). • Stability half-life was then calculated by the formula, t ½=0.693÷k Surrogate Activity-Based Plasma Stability Assay:
The calcium flux protocol described above was followed, with the following changes. The peptides were also incubated with 5% rat plasma (Bioreclamation # [sequence]-M, Na Heparin-treated). Readings were taken at time points t0 and t24 hrs, after incubation in a 37° C. tissue culture incubator. Peptide plasma half-life in minutes was estimated by calculating the following:
2) Calculate slope of value above and

Where a SMILES comes first, the peptide text is derived from it. Bridges are numbered along the chain shown (N, C = ends). [ ]: non-standard residue; d: D form. Nle = CCCC[C@H](N)C(=O)O

Description for hAPJ: Chem-5 APJ stable cells (Millipore # HTS068C) were plated in 384-well format with 10,000 cells/well in 25 ul growth media, then grown 24 hours in a 37° C. tissue culture incubator. One hour before the assay, 25 ul/well FLIPR Calcium 4 dye (Molecular Devices R8142) with 2.5 mM probenecid was added, and cells were incubated one hour in a 37° C. tissue culture incubator. Peptides were solubilized in HBSS, HEPES & 0.1% BSA buffer, and serially-diluted 10-fold, from 50 uM to 5 pM, in triplicate. FLIPR Tetra was used to add peptide to the cells with dye (1:5, for final peptide concentrations ranging from 10 uM to 1 pM). FLIPR dye inside the cells emitted fluorescence after binding to calcium, while fluorescence from outside the cells was masked. Fluorescence was measured using 470-495 excitation and 515-575 emission wavelengths on the FLIPR Tetra. Readings were done for 3 minutes total, beginning 10 seconds before the peptide addition. Maximum-minimum values were calculated and plotted for each peptide concentration, and Graph Pad prism software was used to calculate EC50 values at the curve inflection points, for calcium flux stimulation by peptides.

Usually EC50 stands for the concentration giving half of the maximal effect. For orientation: half-life means the time needed for the level to fall by half in the phase considered. `CCCC[C@@H]1NC(=O)[C@@H]2CCCN2C(=O)CNC(=O)[C@H](CCCCN)NC(=O)[C@H](Cc2ccccc2)NC(=O)[C@@H]2CSSC[C@H](NC1=O)C(=O)N[C@@H](Cc1ccccc1)C(=O)NCC(=O)NCC(=O)N[C@@H](CCC(N)=O)C(=O)N[C@@H](CCCNC(=N)N)C(=O)N1CCC[C@H]1C(=O)N[C@@H](CCCNC(=N)N)C(=O)N[C@@H](CC(C)C)C(=O)N2` [Example 7, Q-R-P-R-L-C-F-K-G-P-Nle-C-F-G-G] (cyclo(CFGGQRPRLCFKGP[Nle]); disulfide 1-10): the EC50 at hAPJ stood at 90.9 nM. Moreover, in series [1], the half-life is over 16.7 h.
